Tests used:
[1] = biological target: T1, human mAChR M1 (Homo sapiens, UniProt P11229); experiment: mAChR M1 cell-based functional assay (calcium mobilization, Fluo-4, FDSS); conditions: CHO-K1 cells stably expressing hM1; for Emax: EC20 acetylcholine response, read-out: Human M1 Emax; for EC50: positive allosteric modulator activity as increase in the EC20 acetylcholine response
T1 construct: host or cells: CHO-K1
T1 sequence (P11229 1-460): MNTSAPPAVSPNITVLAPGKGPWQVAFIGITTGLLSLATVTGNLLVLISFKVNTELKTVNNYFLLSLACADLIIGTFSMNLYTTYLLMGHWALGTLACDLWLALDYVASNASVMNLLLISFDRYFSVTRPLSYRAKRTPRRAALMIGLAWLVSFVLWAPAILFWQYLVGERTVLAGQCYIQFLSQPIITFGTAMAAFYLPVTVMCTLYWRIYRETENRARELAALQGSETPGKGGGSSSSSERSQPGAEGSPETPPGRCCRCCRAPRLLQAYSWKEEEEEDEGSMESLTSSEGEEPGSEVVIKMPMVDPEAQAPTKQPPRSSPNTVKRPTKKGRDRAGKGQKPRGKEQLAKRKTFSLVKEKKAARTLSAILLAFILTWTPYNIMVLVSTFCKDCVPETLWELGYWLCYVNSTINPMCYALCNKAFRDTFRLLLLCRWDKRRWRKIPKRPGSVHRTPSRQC
How it was run: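 CHO-K1 cells stably expressing muscarinic receptor, loaded with Fluo-4; 11-point 1:3 compound series added and calcium flux read over 300 s at 1 Hz. Agonism from direct calcium rise, PAM activity as potentiation of EC20 acetylcholine, antagonism as decrease of EC80 acetylcholine; four-parameter logistic fits.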

[2] = Brain tissue distribution study in Sprague-Dawley rat (IV cassette); type: in vivo; conditions: male, IV cassette 0.2 mg/kg per compound, 0.25 h post-dose; for Kp uu at 0.25 h: brain/plasma (unbound), unbound distribution partition coefficient; for Kp at 0.25 h: brain/plasma, distribution partition coefficient
Description: The plasma protein and nonspecific brain homogenate binding of certain compounds were determined in plasma or brain homogenate using contemporary equilibrium dialysis and employing HTDialysis™ Teflon dialysis chambers and cellulose membranes (MWCO 12-14 K) from HTDialysis (Gales Ferry, Conn.). Brain tissue homogenate was prepared by diluting one volume whole brain tissue with three volumes of phosphate buffer (pH 7.4). The mixture was then subjected to mechanical homogenation employing a Mini-Beadbeater™ and 1.0 mm Zirconia/Silica Beads from BioSpec Products (Bartlesville, Okla.). Plasma or brain homogenate was fortified with test article and mixed thoroughly for a final concentration of 5 μM for plasma and 1 μM for brain homogenate. Subsequently, 100 μL of the plasma- or brain homogenate-compound mixture was transferred to one side of a dialysis chamber with an accompanying 100 μL of phosphate buffer (pH 7.4) in the opposite side of the chamber. The plate block was sealed and incubated for 6 hours (37° C.) with shaking. Upon completion, aliquots from each chamber were matrix-matched with either plasma or brain homogenate (1:1, buffer side) or buffer (1:1, plasma or brain homogenate side) in a new 96-well plate, at which time the proteins and cell debris/membranes (for brain homogenate) were precipitated with ice-cold acetonitrile containing an internal standard (carbamazepine, 50 nM). The plate was centrifuged (3000 rcf, 10 min) and supernatants diluted (1:1, v/v) via transfer into a fresh 96-well plate containing deionized H2O; the plate was sealed in preparation for LC/MS/MS bioanalysis. The assay was performed in triplicate for each compound.
A cassette of compounds (n=5/cassette) were formulated from 10 mmol L^−1 solutions prepared in DMSO. In order to reduce the absolute volume of DMSO that was administered, the compounds were combined and diluted with ethanol and PEG 400 to achieve a final concentration of 0.4 mg mL^−1 for each compound (2 mg mL^−1 total) administered in each cassette; the maximal dosing volume was 0.5 mL kg^−1 of each animal's body mass. The final dosing solutions consisted of approximately 10% ethanol, 40% PEG400, and 50% DMSO (v/v). Each cassette dose was administered IV via the jugular vein to one dual-cannulated (carotid artery and jugular vein) adult male Sprague-Dawley rat, each weighing between 250 and 350 g (Harlan, Indianapolis, Ind.) for a final dose of 0.2 mg kg^−1 per compound. Whole blood and dissected whole brains were collected at the time of euthanization (0.25 h post-dose), with the whole brain being removed and thoroughly rinsed with cold phosphate-buffered saline prior to freezing on dry ice. […]

[3] = system: C57Bl/6 mice; experiment: Behavioral manifestations of seizure activity (modified Racine scoring); type: in vivo; conditions: 100 mg/kg i.p., monitored up to 3 hr for seizure behavior
Description: To evaluate induction of behavioral manifestation of seizure activity, C57Bl/6 mice received administration of vehicle or 100 mg/kg M1 PAM. Compounds were formulated in 10% Tween 80 (pH 7.0) at a concentration of 10 mg/ml and injected i.p. (n=3). Animals were monitored continuously and scored for behavioral manifestations of seizure activity at 5, 10, 15 and 30 min, and 1 and 3 hr. Behavioral manifestations of seizures were scored using a modified Racine scoring system (R. J. Racine, Modification of seizure activity by electrical stimulation. II. Motor seizure. Electroencephalogr. Clin. Neurophysiol. 32, 281 (March, 1972)). Briefly, a score of 0 represents no behavior alterations; score 1, immobility, mouth and facial movements, or facial clonus; score 2, head nodding, tail extension; score 3, forelimb clonus, repetitive movements; score 4, rearing and tonic clonic seizure; and score 5, continuous rearing and falling, severe generalized tonic clonic seizure.

Row | Structure (SMILES) | Emax [1] [%] | EC50 [1] [nM] | Kp uu at 0.25 h [2] | Kp at 0.25 h [2] | Adverse Effect in mice (100 mpk, i.p.) [3]
1 | Cn1cc(-c2ccc(Cc3cc(C(=O)NC4CCOCC4)nc4c3ccn4C)cn2)cn1 [Compound 47, 1-methyl-4-[[6-(1-methylpyrazol-4-yl)-3-pyridyl]methyl]-N-tetrahydropyran-4-yl-pyrrolo[2,3-b]pyridine-6-carboxamide] | 83.8 | 180 | 0.32 | 0.28 | No
2 | Cn1cc(-c2ccc(Cc3cc(C(=O)N[C@H]4CCCC[C@@H]4O)nc4sccc34)cn2)cn1 [Compound 113, N-[(1S,2S)-2-hydroxycyclohexyl]-4-[[6-(1-methylpyrazol-4-yl)-3-pyridyl]methyl]thieno[2,3-b]pyridine-6-carboxamide] | 60.5 | 810 |  |  | 
3 | Cn1ccc(-c2ccc(Cc3cc(C(=O)NCC4CCOC4)nc4c3ccn4C)cn2)n1 (centres unmarked) [Compound 151, 1-methyl-4-[[6-(1-methylpyrazol-3-yl)-3-pyridyl]methyl]-N-(tetrahydrofuran-3-ylmethyl)pyrrolo[2,3-b]pyridine-6-carboxamide] | 76.4 | 1210 |  |  | 
4 | Cn1ccc2c(Cc3ccc(-c4nccs4)cc3)cc(C(=O)NCC3CCOCC3)nc21 [Compound 68, 1-methyl-N-(tetrahydropyran-4-ylmethyl)-4-[(4-thiazol-2-ylphenyl)methyl]pyrrolo[2,3-b]pyridine-6-carboxamide] | 37.9 | 1450 |  |  | 
5 | O=C(NCC1CCOC1)c1cc(Cc2ccc(-n3cccn3)cc2)c2ccsc2n1 (centres unmarked) [Compound 79, 4-[(4-pyrazol-1-ylphenyl)methyl]-N-(tetrahydrofuran-3-ylmethyl)thieno[2,3-b]pyridine-6-carboxamide] | 65.6 | 2080 |  |  | 
6 | Cn1ccc2c(Cc3ccc(-c4nccs4)cc3)cc(C(=O)NC3CCOC(C)(C)C3)nc21 (centres unmarked) [Compound 66, N-(2,2-dimethyltetrahydropyran-4-yl)-1-methyl-4-[(4-thiazol-2-ylphenyl)methyl]pyrrolo[2,3-b]pyridine-6-carboxamide] | 59.6 | 1650 |  |  | 
7 | C[C@@H]1CC(NC(=O)c2cc(Cc3ccc(-c4nccs4)cc3)c3ccn(C)c3n2)C[C@H](C)O1 (stereo partly drawn) [Compound 65, N-[(2S,6R)-2,6-dimethyltetrahydropyran-4-yl]-1-methyl-4-[(4-thiazol-2-ylphenyl)methyl]pyrrolo[2,3-b]pyridine-6-carboxamide] | 58.6 | 2780 |  |  | 
8 | Cn1ccc(-c2ccc(Cc3cc(C(=O)N[C@H]4CCCC[C@@H]4O)nc4sccc34)cn2)n1 [Compound 101, N-[(1S,2S)-2-hydroxycyclohexyl]-4-[[6-(1-methylpyrazol-3-yl)-3-pyridyl]methyl]thieno[2,3-b]pyridine-6-carboxamide] | 67.2 | 2660 |  |  | 
9 | Cn1ccc2c(Cc3ccc(-c4cscn4)cc3)cc(C(=O)NC3COC3)nc21 [Compound 35, 1-methyl-N-(oxetan-3-yl)-4-[(4-thiazol-4-ylphenyl)methyl]pyrrolo[2,3-b]pyridine-6-carboxamide] | 40.2 | 1230 |  |  | 

Continued by falling EC50 [1], values first:

Row | Emax [1] [%] | EC50 [1] [nM] | Structure (SMILES) | Kp uu at 0.25 h [2] | Kp at 0.25 h [2] | Adverse Effect in mice (100 mpk, i.p.) [3]
10 | 86.4 | 390 | Cc1nc(-c2ccc(Cc3cc(C(=O)NC4CCOCC4)nc4c3ccn4C)cc2)co1 [Compound 53, 1-methyl-4-[[4-(2-methyloxazol-4-yl)phenyl]methyl]-N-tetrahydropyran-4-yl-pyrrolo[2,3-b]pyridine-6-carboxamide] | 0.85 | 0.51 | No
11 | 84.6 | 380 | Cc1nc(-c2ccc(Cc3cc(C(=O)NC4CC5(COC5)C4)nc4c3ccn4C)cc2)co1 [Compound 54, 1-methyl-4-[[4-(2-methyloxazol-4-yl)phenyl]methyl]-N-(2-oxaspiro[3.3]heptan-6-yl)pyrrolo[2,3-b]pyridine-6-carboxamide] |  |  | 
12 | 65.5 | 370 | Cn1ccc(-c2ccc(Cc3cc(C(=O)NCC4CCOC4)nc4sccc34)cc2)n1 (centres unmarked) [Compound 95, 4-[[4-(1-methylpyrazol-3-yl)phenyl]methyl]-N-(tetrahydrofuran-3-ylmethyl)thieno[2,3-b]pyridine-6-carboxamide] |  |  | 
13 | 78.6 | 130 | Cn1ccc(-c2ccc(Cc3cc(C(=O)N[C@H]4CCCC[C@@H]4O)nc4c3ccn4C)cc2)n1 [Compound 38, N-[(1S,2S)-2-hydroxycyclohexyl]-1-methyl-4-[[4-(1-methylpyrazol-3-yl)phenyl]methyl]pyrrolo[2,3-b]pyridine-6-carboxamide] |  |  | 
14 | 76.4 | 130 | Cn1ncc2c(Cc3ccc(-c4cscn4)cc3)cc(C(=O)N[C@H]3CCCC[C@@H]3O)nc21 [Compound 28, N-[(1S,2S)-2-hydroxycyclohexyl]-1-methyl-4-[(4-thiazol-4-ylphenyl)methyl]pyrazolo[3,4-b]pyridine-6-carboxamide] |  |  | 
15 | 41.4 | 60 | Cc1nc(-c2ccc(Cc3cc(C(=O)N[C@H]4CCOC[C@@H]4O)nc4sccc34)cc2)co1 [Compound 130, N-[(3R,4S)-3-hydroxytetrahydropyran-4-yl]-4-[[4-(2-methyloxazol-4-yl)phenyl]methyl]thieno[2,3-b]pyridine-6-carboxamide] |  |  | 
16 | 66.4 | 30 | Cn1ccc2c(Cc3ccc(-n4cccn4)cc3)cc(C(=O)N[C@H]3CCCC[C@@H]3O)nc21 [Compound 17, N-[(1S,2S)-2-hydroxycyclohexyl]-1-methyl-4-[(4-pyrazol-1-ylphenyl)methyl]pyrrolo[2,3-b]pyridine-6-carboxamide] |  |  | 
